The structures appear in SMILES notation.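 Cells were grown in 96-well plates and exposed to each compound for 48 hours at five concentrations; endpoints were interpolated linearly between bracketing concentrations, or set to the highest concentration if not reached. TGI marks complete inhibition of growth.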 A value given as a limit tells only on which side of the number the result lay.

Some test systems named below: UO-31 renal; SK-MEL-28 melanoma; K-562 leukemia; IGROV1 ovarian; UACC-62 melanoma; SW-620 colon; A549 NSCLC; HCT-116 colon; M14 melanoma; OVCAR-5 ovarian; SF-295 CNS; PC-3 prostate; SNB-19 CNS; LOX IMVI melanoma; MDA-MB-231 breast; SF-539 CNS; NCI-H226 lung.
Holding throughout (experiment): growth of human tumour cells (NCI), 48 h

With `CCOC(=O)c1cc2cc(C)cc(C(=O)c3ccc([N+](=O)[O-])cc3)c2[nH]1`, the TGI with UO-31 renal, in the assay on SK-MEL-28 melanoma, in the assay on K-562 leukemia, in the assay with IGROV1 ovarian, in the assay on UACC-62 melanoma and in the assay on SW-620 colon was > 100 µM in each case. The TGI in the assay on A549 NSCLC, in the assay with HCT-116 colon, in the assay with M14 melanoma, with OVCAR-5 ovarian, in the assay with SF-295 CNS and in the assay with PC-3 prostate was > 100 µM throughout. The TGI in the assay on SNB-19 CNS, in the assay on LOX IMVI melanoma, in the assay on MDA-MB-231 breast, with SF-539 CNS and in the assay on NCI-H226 lung was > 100 µM throughout.
With `COc1ccc2c(c1)OC(c1ccccc1O)CC2=O` (stereo not drawn), the TGI in the assay on UO-31 renal was 96.8 µM; in the assay on SK-MEL-28 melanoma, > 100 µM; with K-562 leukemia, > 100 µM; with SW-620 colon it was > 100 µM; in the assay with A549 NSCLC it was > 100 µM; in the assay with HCT-116 colon, > 100 µM. Also, the TGI with M14 melanoma, in the assay on OVCAR-5 ovarian, in the assay with SF-295 CNS, in the assay on SNB-19 CNS and in the assay with SF-539 CNS was > 100 µM throughout.
On to `Cc1nnc2n1N=C(c1cc(F)c(Cl)cc1Cl)/C(=C/c1ccc3c(c1)OCO3)S2`, for which the TGI with UO-31 renal, in the assay with SK-MEL-28 melanoma, in the assay with K-562 leukemia, in the assay on IGROV1 ovarian, in the assay with UACC-62 melanoma and with SW-620 colon was > 100 µM each time. In addition, the TGI in the assay with A549 NSCLC, with HCT-116 colon, with M14 melanoma, in the assay on OVCAR-5 ovarian, in the assay on SF-295 CNS and with PC-3 prostate was > 100 µM each time. In addition, the TGI with SNB-19 CNS, in the assay on LOX IMVI melanoma, in the assay with MDA-MB-231 breast, in the assay with SF-539 CNS and with NCI-H226 lung was > 100 µM in each case.
With `O=S(=O)(O)C(Cc1nc2ccccc2[nH]1)S(=O)(=O)OCCC1S(=O)(=O)OCCOS1(=O)=O` (stereo not drawn), the TGI in the assay on UO-31 renal, in the assay on SK-MEL-28 melanoma, in the assay on K-562 leukemia, in the assay with IGROV1 ovarian, with UACC-62 melanoma and in the assay with SW-620 colon was > 100 µM in each case. For the same compound, the TGI in the assay on A549 NSCLC, in the assay on HCT-116 colon, with M14 melanoma, in the assay on OVCAR-5 ovarian, in the assay with SF-295 CNS and in the assay with PC-3 prostate was > 100 µM in each case. Further, the TGI with SNB-19 CNS, in the assay with LOX IMVI melanoma, in the assay with MDA-MB-231 breast, with SF-539 CNS and with NCI-H226 lung was > 100 µM throughout.
For the compound `COc1ccc(N=CN(C)C)c(C)c1`, the TGI with UO-31 renal is 78.1 µM; in the assay on SK-MEL-28 melanoma, 85.6 µM; in the assay with K-562 leukemia, > 100 µM; in the assay with IGROV1 ovarian it was > 100 µM; with UACC-62 melanoma it was 42.6 µM; in the assay with A549 NSCLC, > 100 µM. Also, the TGI with HCT-116 colon is 19.6 µM; in the assay on M14 melanoma, 55.5 µM; with OVCAR-5 ovarian, > 100 µM; with SF-295 CNS, 51.6 µM; in the assay with PC-3 prostate, 31 µM; in the assay on SNB-19 CNS, > 100 µM. Also, the TGI with LOX IMVI melanoma was 15.2 µM; in the assay with MDA-MB-231 breast it was 58 µM; with SF-539 CNS, 82.1 µM; in the assay on NCI-H226 lung it was 64.5 µM.
As to `CN(C)Cc1cc(/C=C/C(=O)c2ccc(Cl)c(Cl)c2)cc(CN(C)C)c1O`, the TGI was 19.6 µM with UO-31 renal; 26.9 µM in the assay with SK-MEL-28 melanoma; 91.2 µM with K-562 leukemia; 25.3 µM in the assay with IGROV1 ovarian; 27.4 µM in the assay on UACC-62 melanoma; 30.1 µM in the assay on SW-620 colon. Also, the TGI with A549 NSCLC was determined as 36.8 µM; in the assay with HCT-116 colon, 26.1 µM; in the assay on M14 melanoma, 33.3 µM; with OVCAR-5 ovarian, 28.3 µM; in the assay on SF-295 CNS, 36.1 µM; with PC-3 prostate, 28.2 µM. Also, the figures for the TGI with SNB-19 CNS, in the assay with MDA-MB-231 breast and in the assay with SF-539 CNS were 32.5 µM, 21.8 µM and 20.3 µM, respectively.
As for `CC(C)C1COC(c2ccc3ccccc3c2-c2c(O[Si](C)(C)C(C)(C)C)ccc3ccccc23)=N1` (stereo not drawn), the TGI in the assay on UO-31 renal worked out at 28.2 µM; with SK-MEL-28 melanoma it was 33.8 µM; with K-562 leukemia it was 31.9 µM; in the assay on IGROV1 ovarian, 35.4 µM; in the assay with UACC-62 melanoma, 30.9 µM; with SW-620 colon, 35.1 µM. Further, the TGI in the assay on A549 NSCLC is 31.7 µM; with M14 melanoma, 29.2 µM; with OVCAR-5 ovarian, 32.6 µM; in the assay on SF-295 CNS, 32.1 µM; in the assay on SNB-19 CNS it was 29.2 µM; in the assay on LOX IMVI melanoma, 45.5 µM. Besides, the TGI in the assay on SF-539 CNS amounted to 32.4 µM; in the assay with NCI-H226 lung, 26.4 µM.
For `N#CCc1nc(-c2cc3c(ccc4ccccc43)oc2=O)cs1`, the TGI was > 100 µM in the assay on UO-31 renal; > 100 µM in the assay with SK-MEL-28 melanoma; > 100 µM with K-562 leukemia; 43.7 µM in the assay with IGROV1 ovarian; 68.4 µM with UACC-62 melanoma; > 100 µM in the assay on SW-620 colon. For the same compound, the TGI in the assay on A549 NSCLC was > 100 µM; with HCT-116 colon, > 100 µM; with M14 melanoma, > 100 µM; with OVCAR-5 ovarian it was > 100 µM; with SF-295 CNS, 71.2 µM; in the assay with PC-3 prostate, > 100 µM. The TGI with SNB-19 CNS was 36.4 µM; in the assay with LOX IMVI melanoma, > 100 µM; in the assay on MDA-MB-231 breast, 39 µM; in the assay on SF-539 CNS it was 51.4 µM; in the assay on NCI-H226 lung it was 81.2 µM.
With `NC(=O)OCc1c(-c2ccccc2)nn(-c2ccccc2)c1COC(N)=O`, the TGI in the assay with UO-31 renal, with SK-MEL-28 melanoma, with UACC-62 melanoma, in the assay on SW-620 colon, in the assay on A549 NSCLC and in the assay on HCT-116 colon was > 100 µM throughout. Moreover, the TGI in the assay with M14 melanoma, with OVCAR-5 ovarian, with SF-295 CNS, in the assay on PC-3 prostate, in the assay on SNB-19 CNS and with MDA-MB-231 breast was > 100 µM throughout. Also, the TGI with SF-539 CNS and with NCI-H226 lung was > 100 µM throughout.

Values taken from PubChem BioAssay (NCI).
